Data as given in PubChem BioAssay (NCI).
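Protocol summary: plate cells (96-well), add compound at 5 concentrations, incubate 48 h, interpolate endpoints linearly. GI50: concentration for 50% inhibition of growth. The concentration for full growth arrest is given as TGI.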

Key:
Assay in all cases: NCI anticancer screen, dose series, 48 h
IGROV1 ovarian = tested on: IGROV1 ovarian
DU-145 prostate = tested on: DU-145 prostate
SR leukemia = tested on: SR leukemia
CAKI-1 renal = tested on: CAKI-1 renal
NCI-H522 lung = tested on: NCI-H522 lung
OVCAR-4 ovarian = tested on: OVCAR-4 ovarian
CCRF-CEM leukemia = tested on: CCRF-CEM leukemia
MALME-3M melanoma = tested on: MALME-3M melanoma
MDA-MB-231 breast = tested on: MDA-MB-231 breast
LOX IMVI melanoma = tested on: LOX IMVI melanoma
SF-295 CNS = tested on: SF-295 CNS
SK-OV-3 ovarian = tested on: SK-OV-3 ovarian
RPMI-8226 leukemia = tested on: RPMI-8226 leukemia
HCT-15 colon = tested on: HCT-15 colon
A498 renal = tested on: A498 renal
SNB-19 CNS = tested on: SNB-19 CNS
PC-3 prostate = tested on: PC-3 prostate
HT29 colon = tested on: HT29 colon
M14 melanoma = tested on: M14 melanoma
MDA-MB-435 = tested on: MDA-MB-435
COLO 205 colon = tested on: COLO 205 colon
ACHN renal = tested on: ACHN renal
EKVX NSCLC = tested on: EKVX NSCLC
TK-10 renal = tested on: TK-10 renal
SW-620 colon = tested on: SW-620 colon
A549 NSCLC = tested on: A549 NSCLC
SK-MEL-5 melanoma = tested on: SK-MEL-5 melanoma
SNB-75 CNS = tested on: SNB-75 CNS
SK-MEL-28 melanoma = tested on: SK-MEL-28 melanoma
UACC-257 melanoma = tested on: UACC-257 melanoma
OVCAR-8 ovarian = tested on: OVCAR-8 ovarian
K-562 leukemia = tested on: K-562 leukemia
HOP-92 NSCLC = tested on: HOP-92 NSCLC
HS 578T breast = tested on: HS 578T breast
BT-549 breast = tested on: BT-549 breast
SF-268 CNS = tested on: SF-268 CNS
MCF7 breast = tested on: MCF7 breast
U251 CNS = tested on: U251 CNS
NCI/ADR-RES ovarian = tested on: NCI/ADR-RES ovarian
HCC-2998 colon = tested on: HCC-2998 colon
SK-MEL-2 melanoma = tested on: SK-MEL-2 melanoma
HL-60(TB) leukemia = tested on: HL-60(TB) leukemia
MOLT-4 leukemia = tested on: MOLT-4 leukemia

`O=C(Nc1cc(C(F)(F)F)cc(C(F)(F)F)c1)Nc1ccc2oc(=O)ccc2c1` was tested, and the GI50 (IGROV1 ovarian) was 1510 nM, the TGI (IGROV1 ovarian) was over 100000 nM and the GI50 (DU-145 prostate) was 2000 nM. It also gave a TGI (DU-145 prostate) of over 100000 nM, a GI50 (SR leukemia) of 997 nM and a TGI (SR leukemia) of 5090 nM. The GI50 (CAKI-1 renal) was 1250 nM, the TGI (CAKI-1 renal) was 4860 nM and the GI50 (NCI-H522 lung) was 1400 nM. It also gave a TGI (NCI-H522 lung) of 5000 nM, a GI50 (OVCAR-4 ovarian) of 1250 nM and a TGI (OVCAR-4 ovarian) of over 100000 nM. The GI50 (CCRF-CEM leukemia) was 1220 nM, the TGI (CCRF-CEM leukemia) was over 100000 nM and the GI50 (MALME-3M melanoma) was 1870 nM. It also gave a TGI (MALME-3M melanoma) of 5080 nM, a GI50 (MDA-MB-231 breast) of 2770 nM and a TGI (MDA-MB-231 breast) of over 100000 nM. For the same molecule, the GI50 (LOX IMVI melanoma) was 1600 nM, the TGI (LOX IMVI melanoma) was 4370 nM and the GI50 (SF-295 CNS) was 1440 nM. The TGI (SF-295 CNS) was over 100000 nM, the GI50 (SK-OV-3 ovarian) was 2320 nM and the TGI (SK-OV-3 ovarian) was 5700 nM. It also gave a GI50 (RPMI-8226 leukemia) of 426 nM, a TGI (RPMI-8226 leukemia) of 2360 nM and a GI50 (HCT-15 colon) of 2110 nM. The TGI (HCT-15 colon) was over 100000 nM, the GI50 (A498 renal) was 1670 nM and the TGI (A498 renal) was 4970 nM. The GI50 (SNB-19 CNS) was 1230 nM, the TGI (SNB-19 CNS) was over 100000 nM and the GI50 (PC-3 prostate) was 753 nM. For the same molecule, the TGI (PC-3 prostate) was over 100000 nM, the GI50 (HT29 colon) was 2470 nM and the TGI (HT29 colon) was over 100000 nM. For the same molecule, the GI50 (M14 melanoma) was 2710 nM, the TGI (M14 melanoma) was over 100000 nM and the GI50 (MDA-MB-435) was 2970 nM. The TGI (MDA-MB-435) was over 100000 nM, the GI50 (COLO 205 colon) was 1750 nM and the TGI (COLO 205 colon) was 3460 nM. For the same molecule, the GI50 (ACHN renal) was 1290 nM, the TGI (ACHN renal) was over 100000 nM and the GI50 (EKVX NSCLC) was 3920 nM. It also gave a TGI (EKVX NSCLC) of over 100000 nM, a GI50 (TK-10 renal) of 2990 nM and a TGI (TK-10 renal) of over 100000 nM. It also gave a GI50 (SW-620 colon) of 3020 nM, a TGI (SW-620 colon) of over 100000 nM and a GI50 (A549 NSCLC) of 2140 nM. It also gave a TGI (A549 NSCLC) of over 100000 nM, a GI50 (SK-MEL-5 melanoma) of 1230 nM and a TGI (SK-MEL-5 melanoma) of 2510 nM. For the same molecule, the GI50 (SNB-75 CNS) was 1930 nM, the TGI (SNB-75 CNS) was 6590 nM and the GI50 (SK-MEL-28 melanoma) was 2790 nM. The TGI (SK-MEL-28 melanoma) was over 100000 nM, the GI50 (UACC-257 melanoma) was 2020 nM and the TGI (UACC-257 melanoma) was 6130 nM. It also gave a GI50 (OVCAR-8 ovarian) of 1960 nM, a TGI (OVCAR-8 ovarian) of over 100000 nM and a GI50 (K-562 leukemia) of 782 nM. The TGI (K-562 leukemia) was over 100000 nM, the GI50 (HOP-92 NSCLC) was 1410 nM and the TGI (HOP-92 NSCLC) was 4890 nM. The GI50 (HS 578T breast) was 2440 nM, the TGI (HS 578T breast) was 6360 nM and the GI50 (BT-549 breast) was 2360 nM. The TGI (BT-549 breast) was 6560 nM, the GI50 (SF-268 CNS) was 2950 nM and the TGI (SF-268 CNS) was over 100000 nM. It also gave a GI50 (MCF7 breast) of 2880 nM, a TGI (MCF7 breast) of over 100000 nM and a GI50 (U251 CNS) of 1290 nM. It also gave a TGI (U251 CNS) of over 100000 nM, a GI50 (NCI/ADR-RES ovarian) of 2010 nM and a TGI (NCI/ADR-RES ovarian) of over 100000 nM. It also gave a GI50 (HCC-2998 colon) of 2770 nM, a TGI (HCC-2998 colon) of over 100000 nM and a GI50 (SK-MEL-2 melanoma) of 1680 nM. The TGI (SK-MEL-2 melanoma) was 3410 nM, the GI50 (HL-60(TB) leukemia) was 705 nM and the TGI (HL-60(TB) leukemia) was 5740 nM. The GI50 (MOLT-4 leukemia) was 758 nM and the TGI (MOLT-4 leukemia) was over 100000 nM.
